Measured values as given in US10239933B2, “Compositions and methods for modulating thrombin generation” (The Children's Hospital of Philadelphia, priority 2011, dated 2019).
Like-named read-outs stand apart in the source and are kept apart here. Ends that are not written are not given here.

Columns and labels:
normal human plasma = experiment: Clot time of normal human plasma; format: biochemical; conditions: increasing amounts of FVBR
FXa/FVa [1] = target: T1, FXa/FVa (Homo sapiens, UniProt P12259); experiment: Prothrombin activation assay, FXa/FVa; format: biochemical
T1 construct: thrombin rapidly cleaves Factor V at Arg709 to produce heavy chain (HC); rapidly cleaves at Arg1018 and Arg1545 to produce light chain (LC); made in house
T1 sequence (P12259 29-737 limits assumed): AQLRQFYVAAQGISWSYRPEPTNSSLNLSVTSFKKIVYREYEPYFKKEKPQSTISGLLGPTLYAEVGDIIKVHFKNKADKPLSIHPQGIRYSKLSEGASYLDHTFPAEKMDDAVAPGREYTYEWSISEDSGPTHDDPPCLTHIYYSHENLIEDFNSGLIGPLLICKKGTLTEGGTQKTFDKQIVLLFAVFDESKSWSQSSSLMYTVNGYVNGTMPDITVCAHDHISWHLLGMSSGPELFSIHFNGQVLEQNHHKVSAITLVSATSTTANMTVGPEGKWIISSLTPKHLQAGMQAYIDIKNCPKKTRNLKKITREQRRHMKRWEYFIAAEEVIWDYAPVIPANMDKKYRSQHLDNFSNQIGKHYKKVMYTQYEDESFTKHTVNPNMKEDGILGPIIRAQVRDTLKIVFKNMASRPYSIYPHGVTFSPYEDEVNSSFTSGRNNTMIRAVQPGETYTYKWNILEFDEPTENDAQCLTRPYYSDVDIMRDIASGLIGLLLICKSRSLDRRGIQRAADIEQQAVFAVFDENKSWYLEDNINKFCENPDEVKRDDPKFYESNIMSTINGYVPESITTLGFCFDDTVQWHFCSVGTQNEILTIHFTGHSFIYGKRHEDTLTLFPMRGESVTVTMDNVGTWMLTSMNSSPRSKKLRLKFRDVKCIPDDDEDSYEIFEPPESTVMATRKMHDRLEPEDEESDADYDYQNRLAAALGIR
T1 sequence (P12259 1574-2224 limits assumed): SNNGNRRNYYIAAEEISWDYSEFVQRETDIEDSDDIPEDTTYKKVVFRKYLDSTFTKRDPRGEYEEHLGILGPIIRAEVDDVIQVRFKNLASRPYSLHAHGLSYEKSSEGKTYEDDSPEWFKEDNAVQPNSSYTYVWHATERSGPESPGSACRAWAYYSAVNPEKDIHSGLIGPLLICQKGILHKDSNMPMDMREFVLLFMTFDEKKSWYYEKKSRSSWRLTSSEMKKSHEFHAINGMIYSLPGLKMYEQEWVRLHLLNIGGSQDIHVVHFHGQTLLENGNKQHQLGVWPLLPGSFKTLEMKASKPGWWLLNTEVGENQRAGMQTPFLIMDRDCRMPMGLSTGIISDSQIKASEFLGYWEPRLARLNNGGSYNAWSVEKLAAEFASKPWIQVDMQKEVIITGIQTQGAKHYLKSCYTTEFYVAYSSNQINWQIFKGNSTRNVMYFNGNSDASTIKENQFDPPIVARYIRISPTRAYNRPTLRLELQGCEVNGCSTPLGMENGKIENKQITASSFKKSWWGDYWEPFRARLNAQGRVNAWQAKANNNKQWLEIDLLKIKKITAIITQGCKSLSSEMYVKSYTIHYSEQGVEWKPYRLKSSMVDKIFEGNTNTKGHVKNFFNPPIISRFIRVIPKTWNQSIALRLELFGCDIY
Description: Steady-state initial velocities of prothrombin cleavage were determined discontinuously at 25° C. by measuring the initial rate of thrombin formation. Reaction mixtures contained liposomes (75:25, PC:PS), prothrombin, the indicated Factor V variants, and the Factor V peptides FVBR or s46. The reactions were initiated by adding Factor Xa, and thrombin generation was determined at multiple time points by monitoring the cleavage of the chromogenic thrombin substrate S-2238.
Steady-state initial velocities of prothrombin cleavage were determined discontinuously at 25° C. as described (Camire, R. M. (2002) J. Biol. Chem., 277:37863-37870). Reaction mixtures containing PCPS (50 μM), DAPA (3 μM), prothrombin (1.4 μM), and either rFVa or the indicated FV-810 derivatives were incubated with B-domain peptides (0-10 μM) in assay buffer. […] Prothrombin activation was determined using the chromogenic thrombin substrate 52238 as described (Camire, R. M. (2002) J. Biol. Chem., 277:37863-37870).

FXa/FV-DT = target: T2, FXa/FV-DT (Homo sapiens, UniProt P12259, DEL839-1519); experiment: Binding of fluorescently labeled FXa to FV-DT on liposomes (anisotropy); conditions: on PCPS liposomes
T2 construct: amino acids 1-28 are a signal peptide that is cleaved and numbering begins at residue 29; made in house

FV-810 [2] = target: T3, FV-810 (Homo sapiens, UniProt P12259, DEL839-1519); experiment: Displacement of OG488-BR from preformed OG488-BR/FV-810 complex (fluorescence anisotropy); format: binding; conditions: 30 nM OG488-BR, 20 nM FV-810, 50 μM PCPS; for Kd: 25° C.
T3 construct: amino acids 1-28 are a signal peptide that is cleaved and numbering begins at residue 29; made in house

FV-810 [3] = target: T3, FV-810; experiment: Prethrombin-2 activation, competition of BR and FXa for FV-810; format: biochemical; conditions: read-out: Kd for FV-810 from prethrombin-2 activation, model for tight binding
FV-810 [4] = target: T3, FV-810; experiment: Fluorescence anisotropy, direct binding of OG488-BR to FV-810; conditions: fluorescently labeled FVBR
FV-810^R1545Q = target: T4, FV-810^R1545Q (Homo sapiens, UniProt P12259, DEL839-1519/R1573Q); experiment: Clotting assay with FV-810^R1545Q; format: biochemical
T4 construct: amino acids 1-28 are a signal peptide that is cleaved and numbering begins at residue 29; made in house
Description: (§1) Residual clotting activity of Factor V variants was determined by prothrombin time-based clotting assays. Factor V variants were incubated with either the FVBR or s46 peptide, after which the mixtures were mixed with Factor V deficient plasma and clotting times were measured. Where indicated, the Factor V variants were activated by pre-incubation with thrombin prior to addition of the peptides.
(§2) FV derivatives (500 nM) were prepared in assay buffer. Where noted, FV derivatives were pretreated with 10 nM thrombin for 15 minutes at 37° C., followed by the addition of 15 nM hirudin. Samples were diluted to 0.25 nM in assay buffer with 0.1% BSA, and the specific clotting activity was measured in FV-deficient plasma (George King Bio-Medical, Overland Park, Kans.) with TriniCLOT PT Excel (Tcoag, Wicklow, Ireland) as described (Camire et al. (1998) Biochemistry 37:11896-11906). The data are presented as the means±S.D.

FXa/FVa [5] = target: T1, FXa/FVa; experiment: Binding of fluorescently labeled FXa to rFVa on liposomes (anisotropy); conditions: on PCPS liposomes
rFVa = target: T5, rFVa (Homo sapiens, UniProt P12259); experiment: Clotting assay, FV-deficient plasma supplemented with rFVa; format: biochemical; conditions: FIG. 8B: 0.25 nM rFVa, peptides at 5 μM, listed as BR peptide
T5 construct: thrombin rapidly cleaves Factor V at Arg709 to produce heavy chain (HC); rapidly cleaves at Arg1018 and Arg1545 to produce light chain (LC); made in house
T5 sequence (P12259 29-737 limits assumed): T1 sequence (P12259 29-737 limits assumed)
T5 sequence (P12259 1574-2224 limits assumed): T1 sequence (P12259 1574-2224 limits assumed)
Description: as §1, §2

[6] = listed as FV basic region peptide

T3 sequence (P12259 with tags, fused parts or gaps DEL839-1519): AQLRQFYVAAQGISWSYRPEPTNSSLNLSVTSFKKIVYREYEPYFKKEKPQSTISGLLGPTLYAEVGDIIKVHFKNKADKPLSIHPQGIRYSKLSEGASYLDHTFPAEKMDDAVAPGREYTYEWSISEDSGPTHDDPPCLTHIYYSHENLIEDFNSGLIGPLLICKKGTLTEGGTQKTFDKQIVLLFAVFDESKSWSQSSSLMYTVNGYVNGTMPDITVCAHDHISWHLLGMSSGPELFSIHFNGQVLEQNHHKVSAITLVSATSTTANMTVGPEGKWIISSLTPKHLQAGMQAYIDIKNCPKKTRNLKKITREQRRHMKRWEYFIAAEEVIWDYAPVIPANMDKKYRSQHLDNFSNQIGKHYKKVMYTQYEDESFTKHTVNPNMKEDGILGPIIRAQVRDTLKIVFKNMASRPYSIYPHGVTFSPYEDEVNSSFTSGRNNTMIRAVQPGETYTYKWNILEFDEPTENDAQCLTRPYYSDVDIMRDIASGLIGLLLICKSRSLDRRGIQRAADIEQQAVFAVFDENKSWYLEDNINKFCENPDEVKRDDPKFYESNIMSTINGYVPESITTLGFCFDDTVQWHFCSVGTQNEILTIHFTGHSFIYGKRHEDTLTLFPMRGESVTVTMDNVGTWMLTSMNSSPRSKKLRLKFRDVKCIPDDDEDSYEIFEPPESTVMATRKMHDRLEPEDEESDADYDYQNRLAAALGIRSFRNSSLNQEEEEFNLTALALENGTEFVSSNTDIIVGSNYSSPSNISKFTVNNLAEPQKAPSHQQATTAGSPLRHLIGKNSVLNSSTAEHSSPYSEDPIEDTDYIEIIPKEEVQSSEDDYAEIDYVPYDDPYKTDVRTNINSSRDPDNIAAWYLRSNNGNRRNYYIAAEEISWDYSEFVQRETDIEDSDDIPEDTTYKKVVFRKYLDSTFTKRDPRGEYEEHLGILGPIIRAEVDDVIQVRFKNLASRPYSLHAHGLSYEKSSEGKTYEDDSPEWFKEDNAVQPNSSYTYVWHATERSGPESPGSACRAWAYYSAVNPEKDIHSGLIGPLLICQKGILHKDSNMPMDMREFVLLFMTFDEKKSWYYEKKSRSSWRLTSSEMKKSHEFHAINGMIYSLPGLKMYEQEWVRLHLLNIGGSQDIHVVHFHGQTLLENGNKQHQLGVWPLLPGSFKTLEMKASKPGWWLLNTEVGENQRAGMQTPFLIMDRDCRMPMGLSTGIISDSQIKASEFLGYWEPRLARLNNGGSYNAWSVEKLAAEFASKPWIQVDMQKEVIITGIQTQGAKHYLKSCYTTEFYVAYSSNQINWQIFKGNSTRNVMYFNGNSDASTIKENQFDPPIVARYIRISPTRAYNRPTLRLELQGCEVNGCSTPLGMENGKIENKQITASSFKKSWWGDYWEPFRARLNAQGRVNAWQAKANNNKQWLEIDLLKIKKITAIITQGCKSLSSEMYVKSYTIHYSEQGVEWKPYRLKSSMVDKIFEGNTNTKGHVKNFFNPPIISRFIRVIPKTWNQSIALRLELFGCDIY
T4 sequence (P12259 with tags, fused parts or gaps DEL839-1519/R1573Q): as the sequence (P12259 with tags, fused parts or gaps DEL839-1519) above, with R864Q counted along it
T2 sequence (P12259 with tags, fused parts or gaps DEL839-1519): as the sequence (P12259 with tags, fused parts or gaps DEL839-1519) above

Sequence: SRAWGESTPLANKPGKQSGHPKFPRVRHKSLQVRQDGGKSRLKKSQFLIKTRKKKKEK [FVBR]
- clot time of normal plasma (normal human plasma): prolongs the clot time
- effect on prothrombin activation by FXa/FVa (FXa/FVa [1]): did not affect
- effect on prothrombin activation by FXa/FVa (FXa/FVa [1]; listed as BR peptide): no inhibitory effect
- disruption of FXa binding to FV-DT (FXa/FV-DT): impaired
- disruption of FXa binding to FV-DT (FXa/FV-DT; [6]): disrupts binding
- stoichiometry n, unlabeled BR (FV-810 [2]): 1.0±0.06 mol of BR/mol of FV-810
- Kd (FV-810 [2]; assuming stoichiometry of 1 mol of FV-810/mol of BR peptide): 2.2 ± 0.2 nM
- Kd (FV-810 [2]; n fitted): 2.1 ± 0.2 nM
- Kd (FV-810 [3]): 34.2 ± 3.6 nM
- direct binding to FVDT (FV-810 [4]): direct binding
- direct binding to FVDT (FV-810 [4]; [6]): binds FVDT
- inhibition of FV-810^R1545Q (FV-810^R1545Q; following incubation with thrombin): still inhibited
- inhibition of FV-810^R1545Q (FV-810^R1545Q; prior to thrombin cleavage): potently inhibited
- disruption of FXa binding to FVa (FXa/FVa [5]): not FVa
- inhibition of clotting activity of rFVa/FVa (rFVa): no inhibitory effect
